# Results as given in patent publication US8647824B2, “Microbial reductive dehalogenation of vinyl chloride” (The Board of Trustees of the Leland Stanford Junior …, priority 2004, dated 2014).
# Assays:
# [1] = target: T1, TCE-reductive dehalogenase (TceA) (Dehalococcoides mccartyi, UniProt Q3ZAB8); details: TceA of D. ethenogenes 195; cited from earlier work
# T1 sequence (Q3ZAB8 43-554): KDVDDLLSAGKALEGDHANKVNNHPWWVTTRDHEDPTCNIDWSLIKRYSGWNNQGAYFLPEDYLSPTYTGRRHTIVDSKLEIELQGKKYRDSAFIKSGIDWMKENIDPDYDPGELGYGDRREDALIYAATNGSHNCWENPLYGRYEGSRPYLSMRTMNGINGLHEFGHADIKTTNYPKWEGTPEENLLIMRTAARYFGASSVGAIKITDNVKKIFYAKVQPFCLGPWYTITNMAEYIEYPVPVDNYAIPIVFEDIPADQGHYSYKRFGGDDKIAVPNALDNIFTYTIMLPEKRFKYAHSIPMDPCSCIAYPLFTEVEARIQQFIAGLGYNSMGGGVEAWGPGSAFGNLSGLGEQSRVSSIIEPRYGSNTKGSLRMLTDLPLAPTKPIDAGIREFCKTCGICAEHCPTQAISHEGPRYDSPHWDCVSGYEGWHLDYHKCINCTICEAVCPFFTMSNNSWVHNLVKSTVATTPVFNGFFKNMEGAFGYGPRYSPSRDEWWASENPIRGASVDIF
# [2] = tested on: highly enriched culture of strain VS; details: previously determined; cited from earlier work
# [3] = tested on: Dehalococcoides ethenogenes strain 195; test: Batch dechlorination, D. ethenogenes strain 195 culture; type: cell-based; details: cultures supplied with VC or DCE
# Excerpt: Stock cultures. The Victoria mixed culture, containing strain VS, was maintained in a closed continuously stirred tank reactor (CSTR) as previously described. A VC enrichment of this culture, maintained over 5 years, was also used in these investigations. Liquid cultures of the three other cultures evaluated (Pinellas, KB-1/VC, and Dehalococcoides ethenogenes strain 195) were kept in anaerobic bottles, stored in an anaerobic chamber (10% H2, 10% CO2, 80% N2). The bottles were amended with TCE (1-3 μL neat liquid), VC (250 μL gas), and PCE (1-3 μL neat liquid) being added to each, respectively, approximately every two weeks.
# Batch studies. For the experimental portion of this research, two studies were undertaken, one a comparative VC growth study, and the other a comparative growth and substrate utilization study with different chlorinated ethenes. These studies compared the dechlorination abilities of Dehalococcoides ethenogenes strain 195 and the Dehalococcoides-like microorganisms in the three mixed cultures (Victoria, KB-1/VC, and Pinellas).
# For the first study, a VC enriched inoculum was first developed for each of the three mixed cultures. Here, bottles (120 mL) were filled with 60 mL of anaerobic media in an anaerobic chamber as previously described, and inoculated with 200 μL of each stock culture. Gaseous VC (99.5%) was added with a gas tight syringe (200 μL). […]
# [4] = tested on: Victoria mixed culture, containing strain VS; details: traditional method of cell counting; cited from earlier work
smiles,measurement,setting,value
"C=CCl [VC, vinyl chloride]",VC-reduction rate relative to activity of TCE- and cDCE-reduction,[1],less than 1%
same,strain VS maximum VC utilization rate,[2],7.8×10^−10 μmol Cl^− (cell·d)^−1
same,dechlorination by D. ethenogenes strain 195,[3],did not dechlorinate
same,growth rate determined previously by cell counting,[4],0.4 day⁻¹
